Results published in patent US20240246946A1, “MODULATORS OF TREX1” (Constellation Pharmaceuticals, Inc., priority 2021, published 2024).

What was measured:
[1] = molecular target: T1, full length human TREX1 (Homo sapiens, UniProt Q9NSU2); test: hTREX1 Biochemical Assay (fluorescence, dsDNA substrate degradation); details: biochemical, read-out: hTREX1 IC50
T1 construct: N-terminally His-Tev tagged full length human TREX1; made in house; host or cells: E. coli
T1 sequence (Q9NSU2 1-314): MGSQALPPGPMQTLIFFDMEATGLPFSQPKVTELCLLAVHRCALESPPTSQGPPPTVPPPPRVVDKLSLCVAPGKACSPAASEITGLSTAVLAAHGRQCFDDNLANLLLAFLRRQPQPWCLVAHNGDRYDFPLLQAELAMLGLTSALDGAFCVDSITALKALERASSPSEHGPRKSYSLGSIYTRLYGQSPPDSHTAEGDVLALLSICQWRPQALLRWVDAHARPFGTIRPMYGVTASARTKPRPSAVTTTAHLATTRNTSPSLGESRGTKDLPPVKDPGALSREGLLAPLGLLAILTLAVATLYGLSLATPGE
Method in brief: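 Cleavage of 60 nM TEX615/quencher-labelled dsDNA in pH 7.4 Tris buffer with 5 mM MgCl2, 1.0% DMSO, run 18 hours at 25° C, EDTA-quenched; fluorescence read-out.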

[2] = molecular target: T2, human TREX2 (residues M44-A279) (Homo sapiens, UniProt Q9BQ50); test: hTREX2 Biochemical Assay (fluorescence, dsDNA substrate degradation); details: biochemical selectivity for hTREX1 vs hTREX2
T2 construct: human TREX2 (residues M44-A279, expressed in E. coli); made in house; host or cells: E. coli
T2 sequence (Q9BQ50 44-279 isoform Q9BQ50-1): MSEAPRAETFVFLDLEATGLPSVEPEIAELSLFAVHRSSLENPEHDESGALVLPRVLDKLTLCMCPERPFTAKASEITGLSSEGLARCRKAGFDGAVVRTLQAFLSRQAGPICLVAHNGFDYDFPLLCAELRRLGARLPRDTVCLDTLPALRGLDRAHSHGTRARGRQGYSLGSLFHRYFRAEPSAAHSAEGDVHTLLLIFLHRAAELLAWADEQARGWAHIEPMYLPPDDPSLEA
Method in brief: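 N-His-Tev E. coli enzyme (50 pM) pre-incubated with compound 4 h at 25 °C, then 60 nM TEX615/quencher dsDNA added; 18 h at 25 °C, pH 7.4 Tris buffer with 5 mM MgCl2, 1.0% DMSO. EDTA-quenched; fluorescence 570 ex/615 em from liberated fluorophore, 10-point dose-response.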

[3] = molecular target: T3, full length mouse TREX1 (Mus musculus, UniProt Q91XB0); test: mTREX1 Biochemical Assay (fluorescence, dsDNA substrate degradation); details: biochemical, read-out: mTREX1 IC50
T3 construct: N-terminally His-Tev tagged full length mouse TREX1; made in house; host or cells: E. coli
T3 sequence (Q91XB0 1-314): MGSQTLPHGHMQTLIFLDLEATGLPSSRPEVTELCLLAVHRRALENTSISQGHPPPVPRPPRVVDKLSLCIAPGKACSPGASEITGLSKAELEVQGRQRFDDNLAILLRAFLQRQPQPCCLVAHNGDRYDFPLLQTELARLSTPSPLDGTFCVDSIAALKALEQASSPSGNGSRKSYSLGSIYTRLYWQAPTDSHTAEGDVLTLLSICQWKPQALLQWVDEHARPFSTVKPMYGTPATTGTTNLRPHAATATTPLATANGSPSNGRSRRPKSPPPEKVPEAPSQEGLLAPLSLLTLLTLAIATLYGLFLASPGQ
Method in brief: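 Reaction run 18 h at 25° C. with 60 nM TEX615/quencher-labelled dsDNA and 6 pM mouse TREX1 in Tris buffer (pH 7.4, 5 mM MgCl2, 1.0% DMSO), enzyme having sat 4 h with compound across 10 concentrations. EDTA quench; substrate degradation measured as fluorescence increase.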

[4] = molecular target: T4, hTREX1 (Homo sapiens, UniProt Q9NSU2); test: hTREX1 HCT116 Cell Assay (HCT116 dual cells, Lucia luciferase reporter of Type I interferon induction); format: cell-based; details: TREX1i 4 h before pBR322/BstNI transfection, read after 48 h
T4 construct: host or cells: HCT116 dual cells
T4 sequence (Q9NSU2 1-314): T1 sequence (Q9NSU2 1-314)
Description: HCT116 dual cells (Invivogen, San Diego, CA, USA) are derived from the human HCT116 colorectal carcinoma cell line. Cells have been selected for the stable integration of SEAP and Luciferase reporter genes, which expression is under the control of 5 tandem response elements for NF-KB/AP1 and STAT1/STAT2, respectively. The cell line was used to monitor Type I interferon induction and subsequent signaling by measuring the activity of the Lucia luciferase secreted in the culture medium.
HCT116 cells were plated in 96-well plate(s) at 40,000 cells/well in 100 uL DMEM supplemented with 10% FBS and 25 mM Hepes (pH 7.2-7.5). After overnight settling, cells were treated with TREX1i for 4 h (maximum DMSO fraction was 0.1%) before 1 ug/mL pBR322/BstNI restriction digest (New England Biolabs, Ipswich, MA, USA) was transfected with Lipofectamine LTX (ThermoFisher, Grand Island, NY, USA), according to product manual recommendations. Briefly, Lipofectamine LTX (0.35 uL/well) was diluted in OptiMEM (5 uL/well). pBR322/BstNI (100 ng/well) was diluted in OptiMEM (5 uL/well) before Plus reagent (0.1 uL/100 ng DNA) was added. After 5 min incubation at room temperature, the DNA mixture was mixed dropwise with the diluted Lipofectamine LTX. After an additional 10 min incubation, the transfection mix (10 uL/well) was added to the cells. Cells were maintained at 37 C for 48 h before monitoring the Lucia Luciferase activity from the cell culture medium.

Compound	IC50 [1]	hTREX1 vs hTREX2 selectivity [2]	IC50 [3]	IC50 [4]
CC(c1nc(C(=O)Nc2cnoc2)c(O)c(=O)n1C)C(c1cnn(CCN(C)C)c1)c1ccccc1C#N (single isomer, unassigned) [Example 33 D1E1]	1 to 10 nM	C (C = >50 fold selective for hTREX1)	1 to 10 nM	> 100 nM
CC(c1nc(C(=O)Nc2cnoc2)c(O)c(=O)n1C)C(c1cnn(CCO)c1)c1ccccc1C#N (single isomer, unassigned) [Example 35 D1E1]	< 1 nM	C (C = >50 fold selective for hTREX1)	1 to 10 nM	> 100 nM
Cn1cc(C(c2ccccc2C#N)C(c2nc(C(=O)Nc3cnoc3)c(O)c(=O)n2C)C(F)(F)F)cn1 (single isomer, unassigned) [Example 40 D1E2]	< 1 nM	B (B = 25 to 50-fold selective for hTREX1)	1 to 10 nM	> 100 nM
Cc1nn(C)cc1C(c1ccccc1C#N)C(c1nc(C(=O)Nc2cnoc2)c(O)c(=O)n1C)C(F)(F)F (single isomer, unassigned) [Example 41 D1E2]	< 1 nM	C (C = >50 fold selective for hTREX1)	1 to 10 nM	< 10 nM
Cc1ncc(C(c2ccccc2Cl)C(C)c2nc(C(=O)Nc3cnoc3)c(O)c(=O)n2C)cn1 (single isomer, unassigned) [Example 44 D1E2]	1 to 10 nM	B (B = 25 to 50-fold selective for hTREX1)	1 to 10 nM	10 to 100 nM
CC(c1nc(C(=O)Nc2cnoc2)c(O)c(=O)n1C)C(c1ccccc1Cl)n1cccn1 (single isomer, unassigned) [Example 45 D1E1]	1 to 10 nM	B (B = 25 to 50-fold selective for hTREX1)	> 10 nM	> 100 nM
Cc1nn(C)cc1C(c1cc(F)ccc1C#N)C(C)c1nc(C(=O)Nc2cnoc2)c(O)c(=O)n1C (single isomer, unassigned) [Example 57 D1E1]	1 to 10 nM	C (C = >50 fold selective for hTREX1)	> 10 nM	10 to 100 nM
CCn1cc(C(c2cc(F)ccc2Cl)C(C)c2nc(C(=O)Nc3cnoc3)c(O)c(=O)n2C)cn1 (single isomer, unassigned) [Example 60 D1E1]	< 1 nM	B (B = 25 to 50-fold selective for hTREX1)	1 to 10 nM	10 to 100 nM
Cc1cc(C(c2ccccc2C#N)C(C)c2nc(C(=O)Nc3cnoc3)c(O)c(=O)n2C)n(C)n1 (single isomer, unassigned) [Example 63 D1E1]	< 1 nM	C (C = >50 fold selective for hTREX1)	1 to 10 nM	< 10 nM
COCCn1ncc(C(c2ccccc2C#N)C(C)c2nc(C(=O)Nc3cnoc3)c(O)c(=O)n2C)c1C (single isomer, unassigned) [Example 69 D1E1]	1 to 10 nM	B (B = 25 to 50-fold selective for hTREX1)	1 to 10 nM	10 to 100 nM
CC(c1nc(C(=O)Nc2cnoc2)c(O)c(=O)n1C)C(c1cnn(C)c1)c1ccccc1Cl (single isomer, unassigned) [Example 77 D1E2]	> 10 nM	A (A = <25 fold selective for hTREX1)	> 10 nM	> 100 nM
CC(c1nc(C(=O)Nc2cnoc2)c(O)c(=O)n1C)C(c1cnn(C)c1)c1ccccc1Cl (single isomer, unassigned) [Example 77 D2E1]	> 10 nM	A (A = <25 fold selective for hTREX1)	> 10 nM	> 100 nM
CC(c1nc(C(=O)Nc2cnoc2)c(O)c(=O)n1C)C(c1nnn(C)n1)c1ccccc1C#N (single isomer, unassigned) [Example 79 D1E2]	1 to 10 nM	B (B = 25 to 50-fold selective for hTREX1)	> 10 nM	> 100 nM
CC(c1nc(C(=O)Nc2cnoc2)c(O)c(=O)n1C)C(c1cnn(C)c1)c1ccc(O)cc1C#N (single isomer, unassigned) [Example 80 D1E1]	< 1 nM	C (C = >50 fold selective for hTREX1)	1 to 10 nM	> 100 nM
Cc1ncc(C(c2ccccc2C#N)C(C)c2nc(C(=O)Nc3cnoc3)c(O)c(=O)n2C)nc1C (single isomer, unassigned) [Example 81 D2E1]	1 to 10 nM	B (B = 25 to 50-fold selective for hTREX1)	> 10 nM	> 100 nM

The next lines start with the values.

IC50 [1]	hTREX1 vs hTREX2 selectivity [2]	IC50 [3]	IC50 [4]	Compound
< 1 nM	C (C = >50 fold selective for hTREX1)	< 1 nM	< 10 nM	CC(c1nc(C(=O)Nc2cnoc2)c(O)c(=O)n1C)C(c1cnn(C)c1)c1ccc(C(F)(F)F)cc1C#N (single isomer, unassigned) [Example 30 D1E1]
< 1 nM	C (C = >50 fold selective for hTREX1)	1 to 10 nM	10 to 100 nM	Cc1nn(C)cc1C(c1cc(F)ccc1C#N)C(c1nc(C(=O)Nc2cnoc2)c(O)c(=O)n1C)C(F)(F)F (single isomer, unassigned) [Example 42 D1E2]
< 1 nM	C (C = >50 fold selective for hTREX1)	< 1 nM	< 10 nM	CCn1cc(C(c2ccccc2C#N)C(C)c2nc(C(=O)Nc3cnoc3)c(O)c(=O)n2C)c(C)n1 (single isomer, unassigned) [Example 70 D1E1]
< 1 nM	C (C = >50 fold selective for hTREX1)	< 1 nM	< 10 nM	COCCn1cc(C(c2ccccc2C#N)C(C)c2nc(C(=O)Nc3cnoc3)c(O)c(=O)n2C)c(C)n1 (single isomer, unassigned) [Example 71 D1E1]
< 1 nM	C (C = >50 fold selective for hTREX1)	1 to 10 nM	< 10 nM	Cc1cnc(C)c(C(c2ccccc2C#N)C(C)c2nc(C(=O)Nc3cnoc3)c(O)c(=O)n2C)n1 (single isomer, unassigned) [Example 82 D1E1]
1 to 10 nM	C (C = >50 fold selective for hTREX1)	> 10 nM	> 100 nM	Cc1cnc(C)c(C(c2ccccc2C#N)C(C)c2nc(C(=O)Nc3cnoc3)c(O)c(=O)n2C)n1 (single isomer, unassigned) [Example 82 D2E1]
< 1 nM	C (C = >50 fold selective for hTREX1)	> 10 nM	10 to 100 nM	Cc1nccc(C(c2ccccc2C#N)C(C)c2nc(C(=O)Nc3cnoc3)c(O)c(=O)n2C)n1 (single isomer, unassigned) [Example 83 D1E1]
